From ChEMBL document CHEMBL1201862, “PubChem BioAssay data set” (2004)
The source made the active and inactive calls.

Tests used:
[1] = target: T1, Ubiquitin-conjugating enzyme E2 N (Homo sapiens, UniProt P61088); type: functional
T1 sequence (P61088 whole entry): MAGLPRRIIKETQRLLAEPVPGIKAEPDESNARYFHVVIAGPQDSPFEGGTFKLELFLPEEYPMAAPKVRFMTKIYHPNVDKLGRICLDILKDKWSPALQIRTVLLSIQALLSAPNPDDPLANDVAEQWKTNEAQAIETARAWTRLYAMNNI

Bcl-2-related protein A1 = target: T2, Bcl-2-related protein A1 (Mus musculus, UniProt Q07440); type: functional;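 note: confirmatory dose–response counterscreen on Bfl-1, used to check hits from a UBC13 polyubiquitin inhibitor campaign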
T2 sequence (Q07440 whole entry): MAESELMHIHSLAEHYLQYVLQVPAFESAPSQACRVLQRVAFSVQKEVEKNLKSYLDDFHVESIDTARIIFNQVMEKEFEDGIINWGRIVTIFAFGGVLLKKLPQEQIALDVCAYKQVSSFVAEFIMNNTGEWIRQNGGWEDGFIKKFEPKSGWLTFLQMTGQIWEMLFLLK

[2] = target: T3, Type-1 angiotensin II receptor (Homo sapiens, UniProt P30556); assay: AT1 receptor agonists, dose response, selectivity assay for APJ receptor agonist project, cell-based, uHTS hits (AID 488865); type: functional;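 note: beta-arrestin recruitment to AT1 measured by enzyme fragment complementation luminescence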
T3 sequence (P30556 whole entry): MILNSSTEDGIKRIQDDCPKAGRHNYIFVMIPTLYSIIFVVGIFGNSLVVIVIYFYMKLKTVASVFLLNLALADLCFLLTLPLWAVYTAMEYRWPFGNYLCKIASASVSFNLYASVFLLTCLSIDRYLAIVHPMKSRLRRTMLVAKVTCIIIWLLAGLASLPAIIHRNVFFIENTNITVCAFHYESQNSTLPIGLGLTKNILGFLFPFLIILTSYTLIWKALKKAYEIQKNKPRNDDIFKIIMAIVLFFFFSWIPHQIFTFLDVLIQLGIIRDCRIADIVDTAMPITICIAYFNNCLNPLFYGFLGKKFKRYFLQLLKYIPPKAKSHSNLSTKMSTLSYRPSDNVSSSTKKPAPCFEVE

[3] = target: T1, Ubiquitin-conjugating enzyme E2 N; type: functional; remark: listed apart in the source
Protein RecA = target: T4, Protein RecA (Mycobacterium tuberculosis, UniProt P9WHJ3); assay: Fluorescence Cell-Free Homogeneous Dose Retest to Identify Inhibitors of RecA-Intein Splicing Activity. [Related pubchem assays (depositor defined):AID2097, AID2223, AID489010, AID492950]; type: functional
T4 sequence (P9WHJ3 whole entry): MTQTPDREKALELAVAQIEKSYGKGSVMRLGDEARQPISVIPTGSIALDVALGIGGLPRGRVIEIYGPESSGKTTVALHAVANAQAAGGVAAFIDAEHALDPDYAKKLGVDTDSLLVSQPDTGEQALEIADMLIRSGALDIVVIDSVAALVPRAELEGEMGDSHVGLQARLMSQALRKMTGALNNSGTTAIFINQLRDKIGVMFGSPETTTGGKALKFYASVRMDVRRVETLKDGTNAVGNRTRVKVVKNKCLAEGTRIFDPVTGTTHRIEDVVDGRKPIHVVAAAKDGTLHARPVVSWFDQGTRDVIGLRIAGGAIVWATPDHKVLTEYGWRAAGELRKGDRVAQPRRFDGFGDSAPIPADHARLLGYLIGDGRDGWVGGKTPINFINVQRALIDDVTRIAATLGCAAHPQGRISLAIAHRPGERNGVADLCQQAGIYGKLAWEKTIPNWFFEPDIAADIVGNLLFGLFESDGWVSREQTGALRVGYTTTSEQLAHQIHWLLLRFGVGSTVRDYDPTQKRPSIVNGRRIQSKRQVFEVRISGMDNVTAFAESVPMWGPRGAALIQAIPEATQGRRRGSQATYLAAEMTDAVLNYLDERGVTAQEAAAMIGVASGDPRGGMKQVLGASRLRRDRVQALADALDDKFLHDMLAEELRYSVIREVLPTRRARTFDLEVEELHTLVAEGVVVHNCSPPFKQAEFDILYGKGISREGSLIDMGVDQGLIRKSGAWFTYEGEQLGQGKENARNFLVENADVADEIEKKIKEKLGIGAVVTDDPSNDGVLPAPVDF

[4] = target: 26S proteasome non-ATPase regulatory subunit 14 (Homo sapiens, UniProt O00487); assay: inhibition of proteasome subunit RPN11 – biochemical, fluorescence polarization, uHTS hits, confirmation (AID 602368); type: functional
26S proteasome non-ATPase regulatory subunit 14, sequence (O00487 whole entry, the tested form may be a part): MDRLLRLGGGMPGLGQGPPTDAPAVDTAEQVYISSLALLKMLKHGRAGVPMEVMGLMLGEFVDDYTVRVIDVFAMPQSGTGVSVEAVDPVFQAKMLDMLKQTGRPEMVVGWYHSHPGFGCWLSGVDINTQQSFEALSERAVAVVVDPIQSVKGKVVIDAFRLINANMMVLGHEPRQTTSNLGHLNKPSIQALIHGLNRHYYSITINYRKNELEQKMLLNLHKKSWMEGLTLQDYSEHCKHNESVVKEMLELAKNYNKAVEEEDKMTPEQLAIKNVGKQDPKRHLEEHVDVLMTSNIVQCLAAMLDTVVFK

Fatty acid synthase [5] = target: T5, Fatty acid synthase (Homo sapiens, UniProt P49327); assay: FAS thioesterase domain inhibitors, dose response, biochemical, kinetic fluorescence intensity (AID 624326); type: functional;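 note: rate of fluorescence rise from hydrolysis of a fluorogenic O-methyl fluorescein ester substrate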
T5 sequence (P49327 whole entry, the tested form may be a part): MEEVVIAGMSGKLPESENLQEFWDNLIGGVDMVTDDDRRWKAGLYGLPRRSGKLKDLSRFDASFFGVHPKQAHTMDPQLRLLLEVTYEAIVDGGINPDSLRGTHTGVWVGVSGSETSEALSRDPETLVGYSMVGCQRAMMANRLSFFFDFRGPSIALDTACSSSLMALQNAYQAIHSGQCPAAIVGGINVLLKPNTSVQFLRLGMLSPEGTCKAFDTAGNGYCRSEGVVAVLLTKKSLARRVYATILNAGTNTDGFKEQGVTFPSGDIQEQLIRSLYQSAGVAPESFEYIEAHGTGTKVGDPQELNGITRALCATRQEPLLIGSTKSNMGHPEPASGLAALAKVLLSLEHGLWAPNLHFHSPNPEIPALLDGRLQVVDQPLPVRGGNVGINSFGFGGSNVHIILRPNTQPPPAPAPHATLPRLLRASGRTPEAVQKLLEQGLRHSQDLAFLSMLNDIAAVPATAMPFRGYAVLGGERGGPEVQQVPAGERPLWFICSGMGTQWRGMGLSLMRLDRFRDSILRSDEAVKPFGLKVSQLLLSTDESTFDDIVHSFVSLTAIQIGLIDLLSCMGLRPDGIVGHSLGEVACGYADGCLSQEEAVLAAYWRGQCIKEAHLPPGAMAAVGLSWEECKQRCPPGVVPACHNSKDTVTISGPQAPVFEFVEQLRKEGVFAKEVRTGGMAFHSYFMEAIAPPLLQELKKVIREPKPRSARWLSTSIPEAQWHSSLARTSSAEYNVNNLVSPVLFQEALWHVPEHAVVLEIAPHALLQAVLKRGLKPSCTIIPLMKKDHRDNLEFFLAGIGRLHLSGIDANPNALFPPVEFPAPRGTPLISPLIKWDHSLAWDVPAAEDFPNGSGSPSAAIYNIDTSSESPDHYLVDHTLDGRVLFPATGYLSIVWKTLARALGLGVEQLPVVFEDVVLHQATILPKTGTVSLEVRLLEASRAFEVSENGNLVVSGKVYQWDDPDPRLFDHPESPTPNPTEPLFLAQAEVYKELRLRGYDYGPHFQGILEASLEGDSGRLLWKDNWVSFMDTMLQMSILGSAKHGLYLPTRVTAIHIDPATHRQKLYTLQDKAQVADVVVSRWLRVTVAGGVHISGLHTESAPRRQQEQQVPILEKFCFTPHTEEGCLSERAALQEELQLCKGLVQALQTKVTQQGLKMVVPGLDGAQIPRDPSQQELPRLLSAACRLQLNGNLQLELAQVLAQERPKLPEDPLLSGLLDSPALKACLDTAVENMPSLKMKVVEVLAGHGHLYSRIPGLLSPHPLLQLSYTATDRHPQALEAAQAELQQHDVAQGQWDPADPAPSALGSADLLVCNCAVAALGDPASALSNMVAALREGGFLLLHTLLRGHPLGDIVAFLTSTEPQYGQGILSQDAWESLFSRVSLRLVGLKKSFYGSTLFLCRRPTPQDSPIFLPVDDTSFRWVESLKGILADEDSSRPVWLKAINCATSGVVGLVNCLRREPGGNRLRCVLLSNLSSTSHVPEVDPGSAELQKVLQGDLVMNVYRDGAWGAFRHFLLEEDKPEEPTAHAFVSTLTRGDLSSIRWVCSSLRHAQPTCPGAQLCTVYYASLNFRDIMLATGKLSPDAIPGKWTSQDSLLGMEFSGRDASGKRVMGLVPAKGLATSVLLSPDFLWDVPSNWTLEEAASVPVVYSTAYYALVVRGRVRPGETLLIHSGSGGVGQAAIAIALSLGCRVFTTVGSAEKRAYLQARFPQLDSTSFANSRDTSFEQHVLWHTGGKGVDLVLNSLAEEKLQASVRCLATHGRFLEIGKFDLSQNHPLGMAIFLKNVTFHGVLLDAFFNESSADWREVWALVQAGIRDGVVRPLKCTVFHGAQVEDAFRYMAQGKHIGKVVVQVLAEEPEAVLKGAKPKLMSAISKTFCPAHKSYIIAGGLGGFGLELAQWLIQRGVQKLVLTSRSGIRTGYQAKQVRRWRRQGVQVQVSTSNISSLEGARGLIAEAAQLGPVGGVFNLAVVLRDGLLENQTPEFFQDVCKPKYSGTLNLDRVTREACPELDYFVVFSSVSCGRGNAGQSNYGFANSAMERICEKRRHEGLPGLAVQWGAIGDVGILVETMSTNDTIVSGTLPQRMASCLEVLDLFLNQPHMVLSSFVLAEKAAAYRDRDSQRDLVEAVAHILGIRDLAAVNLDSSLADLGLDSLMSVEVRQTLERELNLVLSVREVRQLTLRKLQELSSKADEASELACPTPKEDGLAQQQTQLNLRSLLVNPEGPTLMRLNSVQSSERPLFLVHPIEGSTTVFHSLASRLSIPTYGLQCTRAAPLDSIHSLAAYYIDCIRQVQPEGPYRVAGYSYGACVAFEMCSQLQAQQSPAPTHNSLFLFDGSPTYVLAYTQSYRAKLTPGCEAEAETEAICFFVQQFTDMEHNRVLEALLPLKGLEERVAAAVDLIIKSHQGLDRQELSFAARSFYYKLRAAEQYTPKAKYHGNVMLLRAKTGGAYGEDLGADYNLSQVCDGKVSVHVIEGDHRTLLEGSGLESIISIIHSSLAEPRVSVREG

[6] = target: 72 kDa type IV collagenase (Homo sapiens, UniProt P08253); assay: Dose Response validation of uHTS RPN11 inhibitor hits using a MMP-2 Fluorescence assay.; type: functional
Fatty acid synthase [7] = target: T5, Fatty acid synthase; assay: FAS thioesterase domain inhibitors, dose response, biochemical, endpoint fluorescence intensity, uHTS hits (AID 624327); type: functional;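 note: fluorescence from hydrolysis of an O-methyl fluorescein acyl ester substrate by the enzyme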
[8] = test system: Streptococcus sp. 'group A'; assay: growth inhibition of control SK(-) GAS strain, dose response, counter-screen for streptokinase expression inhibitor project, luminescence, kanamycin, BacTiterGlo, confirmation (AID 1900); type: functional, organism-based
[9] = target: Envelope glycoprotein gp160 (Human immunodeficiency virus 1, UniProt Q6QLK5); assay: inhibitors of HIV fusion peptide binding, primary screen, biochemical, uHTS, fluorescence dequenching (AID 1986)
Envelope glycoprotein gp160, sequence (Q6QLK5 whole entry, the tested form may be a part): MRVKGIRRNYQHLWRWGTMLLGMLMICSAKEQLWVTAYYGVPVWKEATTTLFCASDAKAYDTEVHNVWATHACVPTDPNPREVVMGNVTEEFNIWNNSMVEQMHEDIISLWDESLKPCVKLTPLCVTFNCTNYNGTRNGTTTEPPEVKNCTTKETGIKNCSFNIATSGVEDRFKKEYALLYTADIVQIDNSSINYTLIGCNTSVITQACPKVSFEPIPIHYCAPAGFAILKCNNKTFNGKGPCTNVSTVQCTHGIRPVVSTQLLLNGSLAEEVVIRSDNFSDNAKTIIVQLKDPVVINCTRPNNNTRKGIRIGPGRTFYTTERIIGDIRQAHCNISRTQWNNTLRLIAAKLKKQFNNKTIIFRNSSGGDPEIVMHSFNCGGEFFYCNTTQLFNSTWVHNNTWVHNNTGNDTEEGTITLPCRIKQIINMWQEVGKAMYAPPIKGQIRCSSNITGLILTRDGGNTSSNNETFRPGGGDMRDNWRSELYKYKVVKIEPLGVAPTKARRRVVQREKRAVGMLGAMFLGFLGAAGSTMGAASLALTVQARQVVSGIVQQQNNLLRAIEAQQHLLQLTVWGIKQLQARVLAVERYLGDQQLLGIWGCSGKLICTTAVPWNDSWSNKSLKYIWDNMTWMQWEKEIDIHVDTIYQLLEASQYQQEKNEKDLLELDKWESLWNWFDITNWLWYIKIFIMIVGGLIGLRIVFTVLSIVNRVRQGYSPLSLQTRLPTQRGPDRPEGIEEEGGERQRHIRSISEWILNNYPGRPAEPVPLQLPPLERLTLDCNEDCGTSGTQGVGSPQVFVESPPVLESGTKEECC

Streptococcus = assay: Group A Streptococcus viability loss, dose response, counter-screen for streptokinase expression inhibitor project, luminescence, BacTiterGlo (AID 1915); type: functional, organism-based;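 note: potency for reduction of bacterial viability or growth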
[10] = HIV-1 Env-mediated cell fusion inhibitors, dose response, CCR5-tropic Env (AID 2279); type: functional
[11] = target: T6, Replicative DNA helicase DnaB (Mycobacterium tuberculosis, UniProt P9WMR3); assay: DnaB intein splicing inhibitors, dose response, biochemical, cell-free fluorescence (AID 449749); type: functional
T6 sequence (P9WMR3 whole entry): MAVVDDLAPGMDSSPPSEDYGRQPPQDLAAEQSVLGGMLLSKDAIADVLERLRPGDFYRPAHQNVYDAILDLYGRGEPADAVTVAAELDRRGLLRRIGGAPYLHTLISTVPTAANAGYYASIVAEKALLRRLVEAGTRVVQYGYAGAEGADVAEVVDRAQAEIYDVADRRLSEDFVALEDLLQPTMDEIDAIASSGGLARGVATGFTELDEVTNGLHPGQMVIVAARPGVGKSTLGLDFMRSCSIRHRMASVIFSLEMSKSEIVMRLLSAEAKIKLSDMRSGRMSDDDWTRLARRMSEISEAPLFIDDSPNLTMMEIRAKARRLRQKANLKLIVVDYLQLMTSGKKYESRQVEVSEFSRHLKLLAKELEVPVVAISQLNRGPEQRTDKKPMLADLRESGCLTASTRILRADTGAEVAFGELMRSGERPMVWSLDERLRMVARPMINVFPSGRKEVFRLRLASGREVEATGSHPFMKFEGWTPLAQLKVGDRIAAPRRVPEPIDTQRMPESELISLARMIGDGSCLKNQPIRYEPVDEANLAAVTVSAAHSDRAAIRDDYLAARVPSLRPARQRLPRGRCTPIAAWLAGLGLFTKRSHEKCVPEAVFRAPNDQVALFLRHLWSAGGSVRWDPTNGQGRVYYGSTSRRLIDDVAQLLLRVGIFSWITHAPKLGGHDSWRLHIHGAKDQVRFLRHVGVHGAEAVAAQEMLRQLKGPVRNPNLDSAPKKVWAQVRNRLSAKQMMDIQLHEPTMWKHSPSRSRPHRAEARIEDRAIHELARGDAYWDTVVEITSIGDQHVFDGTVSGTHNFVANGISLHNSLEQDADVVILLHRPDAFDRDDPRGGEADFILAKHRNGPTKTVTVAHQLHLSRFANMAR

Prothrombin = Prothrombin (Bos taurus, UniProt P00735); assay: thrombin inhibition, dose response, biochemical, fluorescence polarization, uHTS hits (AID 602369); type: functional
[12] = Intein inhibitors as potential Tuberculosis drugs, a cytotoxicity screen. [Related pubchem assays (depositor defined):AID2221, AID2223, AID434968, AID435010, AID449749, AID449750, AID489010]; type: functional
Beta-galactosidase = Beta-galactosidase (Escherichia coli, UniProt Q8VNN2); assay: beta-galactosidase enzyme inhibitors and activators, dose response, artefact control for CCR6 antagonist project, biochemical, E. coli enzyme, set 3 (AID 504712); type: functional
Beta-galactosidase, sequence (Q8VNN2 whole entry): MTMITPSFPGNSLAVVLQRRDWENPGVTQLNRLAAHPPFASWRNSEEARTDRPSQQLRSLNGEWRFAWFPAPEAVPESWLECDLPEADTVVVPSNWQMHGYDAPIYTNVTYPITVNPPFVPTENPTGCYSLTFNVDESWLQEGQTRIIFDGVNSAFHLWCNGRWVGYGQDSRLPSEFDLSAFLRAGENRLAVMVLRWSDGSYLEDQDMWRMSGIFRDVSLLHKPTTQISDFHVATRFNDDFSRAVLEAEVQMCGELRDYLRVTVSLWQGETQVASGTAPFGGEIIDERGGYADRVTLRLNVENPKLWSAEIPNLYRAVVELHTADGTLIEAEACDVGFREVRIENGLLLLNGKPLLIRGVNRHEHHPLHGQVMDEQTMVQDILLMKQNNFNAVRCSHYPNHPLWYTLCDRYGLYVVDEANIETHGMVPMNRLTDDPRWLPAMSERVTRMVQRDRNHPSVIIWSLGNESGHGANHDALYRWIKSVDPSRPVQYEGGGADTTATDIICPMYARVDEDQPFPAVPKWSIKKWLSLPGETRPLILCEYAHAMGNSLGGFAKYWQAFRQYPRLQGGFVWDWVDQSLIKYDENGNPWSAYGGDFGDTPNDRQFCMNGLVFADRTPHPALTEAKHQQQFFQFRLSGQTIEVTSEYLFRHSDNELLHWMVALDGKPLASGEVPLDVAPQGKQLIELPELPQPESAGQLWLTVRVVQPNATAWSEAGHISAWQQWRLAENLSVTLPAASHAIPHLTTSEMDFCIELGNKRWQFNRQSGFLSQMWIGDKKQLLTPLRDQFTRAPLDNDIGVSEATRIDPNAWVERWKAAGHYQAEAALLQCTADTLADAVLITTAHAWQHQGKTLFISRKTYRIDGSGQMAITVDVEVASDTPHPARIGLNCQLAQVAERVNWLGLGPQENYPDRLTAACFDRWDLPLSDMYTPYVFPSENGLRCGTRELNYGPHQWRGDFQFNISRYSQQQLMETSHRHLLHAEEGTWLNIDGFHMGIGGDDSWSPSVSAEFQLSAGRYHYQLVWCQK

[13] = target: T7, C-C chemokine receptor type 6 (Homo sapiens, UniProt P51684); assay: CCR6 receptor antagonists, dose response, cell-based, luminescent beta-arrestin readout (AID 504728); type: functional
T7 sequence (P51684 whole entry): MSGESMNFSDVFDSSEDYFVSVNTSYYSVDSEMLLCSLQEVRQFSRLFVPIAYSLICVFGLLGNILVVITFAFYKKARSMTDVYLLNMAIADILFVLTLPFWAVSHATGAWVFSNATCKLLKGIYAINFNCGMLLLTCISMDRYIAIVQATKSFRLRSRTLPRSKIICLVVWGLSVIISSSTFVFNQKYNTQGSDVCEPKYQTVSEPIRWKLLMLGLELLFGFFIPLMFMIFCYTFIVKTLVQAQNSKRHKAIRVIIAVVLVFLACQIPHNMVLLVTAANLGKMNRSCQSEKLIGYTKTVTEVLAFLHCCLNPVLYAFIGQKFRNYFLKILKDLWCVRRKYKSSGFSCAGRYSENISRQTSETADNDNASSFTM

[14] = target: G-protein coupled receptor 55 (Homo sapiens, UniProt Q9Y2T6); assay: GPR55 antagonists blocking LPI-driven arrestin recruitment, primary screen, imaging, U2OS, beta-arrestin-GFP, LPI agonist (AID 2013); type: functional;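 note: antagonist potency measured as reduced agonist-driven arrestin aggregation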
G-protein coupled receptor 55, sequence (Q9Y2T6 whole entry): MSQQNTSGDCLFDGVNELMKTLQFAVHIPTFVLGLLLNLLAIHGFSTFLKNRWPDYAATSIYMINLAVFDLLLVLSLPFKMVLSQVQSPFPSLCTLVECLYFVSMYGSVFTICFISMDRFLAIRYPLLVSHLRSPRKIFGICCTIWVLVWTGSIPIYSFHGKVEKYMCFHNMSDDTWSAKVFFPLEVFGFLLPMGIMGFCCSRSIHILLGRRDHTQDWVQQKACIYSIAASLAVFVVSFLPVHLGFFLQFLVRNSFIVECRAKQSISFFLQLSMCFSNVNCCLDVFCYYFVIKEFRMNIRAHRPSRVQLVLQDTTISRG

Streptokinase A = target: T8, Streptokinase A (Streptococcus pyogenes serotype M1, UniProt P10520); assay: S. pyogenes streptokinase expression inhibitors, potency, dose response, plasminogen activation absorbance, OD405 (AID 1914); type: functional, Streptococcus pyogenes M1 GAS;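 note: secreted streptokinase activity via plasminogen activation per viability signal from cell pellet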
T8 sequence (P10520 whole entry): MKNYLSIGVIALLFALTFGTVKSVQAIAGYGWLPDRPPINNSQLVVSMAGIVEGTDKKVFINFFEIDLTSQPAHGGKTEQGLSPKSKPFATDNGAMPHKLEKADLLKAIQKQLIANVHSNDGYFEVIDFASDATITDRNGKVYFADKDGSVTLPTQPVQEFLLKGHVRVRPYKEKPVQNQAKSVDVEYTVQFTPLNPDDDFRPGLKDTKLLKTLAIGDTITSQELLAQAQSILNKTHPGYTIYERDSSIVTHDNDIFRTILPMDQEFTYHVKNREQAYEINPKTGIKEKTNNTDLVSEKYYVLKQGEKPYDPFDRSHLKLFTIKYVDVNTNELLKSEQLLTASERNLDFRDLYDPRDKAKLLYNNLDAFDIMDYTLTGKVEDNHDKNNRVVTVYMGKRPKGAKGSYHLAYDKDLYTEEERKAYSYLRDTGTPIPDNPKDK

[15] = Luminescence Cell-Based Dose Retest to Confirm Inhibitors of Cancer Stem Cells. [Related pubchem assays (depositor defined):AID2717, AID2721]; type: functional; conditions: Homo sapiens
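Throughout, for CC50: cells exposed to compound for 72 hours before luminescence readout.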

SMILES: CCOc1ccc2nc(N(CCCN(C)C)C(=O)c3ccc(S(=O)(=O)N4CCc5ccccc5C4)cc3)sc2c1
- IC50 [1]: 5.52 µM (active)
- IC50 (Bcl-2-related protein A1): > 20 µM (inactive)
- EC50 [2]: > 100 µM (inactive)
- IC50 [3]: 6.95 µM (active)

SMILES: O=C1NC(=S)N(C2CCCCC2)C(=O)/C1=C/NNC(=O)c1ccccc1O
- EC50 (Protein RecA): 4.6 µM (active)
- IC50 [4]: 36.7 µM (active)
- IC50 (Fatty acid synthase [5]): 18.2 µM (active)
- IC50 [6]: > 100 µM (inactive)
- IC50 (Fatty acid synthase [7]): 31.1 µM (inactive)
- EC50 [8]: 0.725 µM (active)
- IC50 [9]: 17.7 µM (active)
- EC50 (Streptococcus): 2.18 µM (active)
- IC50 [10]: 33.7 µM (active)
- AC50 [11]: 3.25 µM (active)
- IC50 (Prothrombin): 93.6 µM (active)
- CC50 [12]: 31.2 µM (active)

SMILES: Cc1c(CCOC(=O)C2C3CC4CC(C3)CC2C4)sc[n+]1CC(=O)c1ccc(Br)cc1 (centres undefined)
- IC50 (Beta-galactosidase): > 66.6 µM (inactive)
- IC50 [13]: 27 µM (inactive)
- IC50 [14]: 3.25 µM (active)
- EC50 (Streptokinase A): 21.9 µM (active)
- AC50 [15]: 2.17 µM (active)
- EC50 [8]: 8.85 µM (active)
- EC50 (Streptococcus): > 150 µM (not active)
- IC50 [3]: > 20 µM (inactive)
